Assay results: ChEMBL document CHEMBL1149979, “1,3-Dithian-2-ylidene and thiazolidin-2-ylidene derivatives as a novel class of antimycotic agents” (1997)
≈ marks a conversion by molar mass, not a printed value.

Tests used:
Aspergillus fumigatus = assay: In vitro minimum inhibitory concentration for antifungal activity against human pathogenic fungi Aspergillus fumigatus; type: functional
Candida albicans = assay: In vitro minimum inhibitory concentration for antifungal activity against human pathogenic fungi Candida albicans; type: functional
Cryptococcus neoformans = assay: In vitro minimum inhibitory concentration for antifungal activity against human pathogenic fungi Cryptococcus neoformans; type: functional
Sporothrix schenckii = assay: In vitro minimum inhibitory concentration for antifungal activity against human pathogenic fungi Sporothrix schenck ii; type: functional
Trichophyton benhamiae = assay: In vitro minimum inhibitory concentration for antifungal activity against human pathogenic fungi Trichophyton mentagrophytes; type: functional, Arthroderma benhamiae

SMILES	MIC (Aspergillus fumigatus)	MIC (Candida albicans)	MIC (Cryptococcus neoformans)	MIC (Sporothrix schenckii)	MIC (Trichophyton benhamiae)
CCN1/C(=C(\C#N)n2ccnc2)SCC1C (stereo not given)	25 µg/mL (≈ 107 µM)	> 100 µg/mL	> 100 µg/mL	> 100 µg/mL	50 µg/mL (≈ 213 µM)
CC1CCS/C(=C(/C#N)n2cnc3ccccc32)S1 (stereo not given)	50 µg/mL (≈ 174 µM)	> 100 µg/mL	> 100 µg/mL	> 100 µg/mL	> 100 µg/mL
O=C(C(=C1SCCCS1)n1ccnc1)c1ccc(Cl)cc1	12.5 µg/mL (≈ 37.1 µM)	> 100 µg/mL	> 100 µg/mL	> 100 µg/mL	12.5 µg/mL (≈ 37.1 µM)
CCOC(=O)C(=C1SCCCS1)n1ccnc1	> 100 µg/mL	> 100 µg/mL	> 100 µg/mL	> 100 µg/mL	> 100 µg/mL
N#CC(=C1SCCCS1)n1ccnc1	3.1 µg/mL (≈ 13.9 µM)	100 µg/mL (≈ 448 µM)	> 100 µg/mL	> 100 µg/mL	25 µg/mL (≈ 112 µM)
CC1CCS/C(=C(/C#N)n2ccnc2)S1 (stereo not given)	0.19 µg/mL (≈ 0.8 µM)	50 µg/mL (≈ 211 µM)	> 100 µg/mL	> 100 µg/mL	3.12 µg/mL (≈ 13.1 µM)
CC1=CS/C(=C(/C#N)n2ccnc2)S1	12.5 µg/mL (≈ 56.5 µM)	> 100 µg/mL	> 100 µg/mL	> 100 µg/mL	12.5 µg/mL (≈ 56.5 µM)
CCOC(=O)/C(=C1/SCCC(C)S1)n1ccnc1 (stereo not given)	50 µg/mL (≈ 176 µM)	> 100 µg/mL	> 100 µg/mL	> 100 µg/mL	25 µg/mL (≈ 87.9 µM)
O=C(/C(=C1/SCCN1c1ccccc1)n1ccnc1)c1ccc(Cl)cc1	> 100 µg/mL	> 100 µg/mL	> 100 µg/mL	> 100 µg/mL	> 100 µg/mL
CCN1CCS/C1=C(/C#N)n1ccnc1	25 µg/mL (≈ 113 µM)	> 100 µg/mL	> 100 µg/mL	> 100 µg/mL	25 µg/mL (≈ 113 µM)
O=C(/C(=C1/SCCN1c1ccc(Cl)cc1)n1ccnc1)c1ccc(Cl)cc1	> 100 µg/mL	> 100 µg/mL	> 100 µg/mL	> 100 µg/mL	> 100 µg/mL
CC(=O)N1CCN(c2ccc(OC[C@H]3CO[C@](Cn4ccnc4)(c4ccc(Cl)cc4Cl)O3)cc2)CC1 [KETOCONAZOLE]	0.7 µg/mL (≈ 1.32 µM)	0.1 µg/mL (≈ 0.188 µM)	0.3 µg/mL (≈ 0.565 µM)	0.1 µg/mL (≈ 0.188 µM)	25 µg/mL (≈ 47 µM)
